Experimental data reported in article PMC5041959, “A high-content EMT screen identifies multiple receptor tyrosine kinase inhibitors with activity on TGFβ receptor” (Oncotarget, 2016).
pIC50: −log10 of the molar value. Where two headings read alike, the source gives them in different places.

Key:
PDGFRB = PDGFRB (Homo sapiens, UniProt P09619); assay: Biochemical kinase profiling (33PanQinase radiometric assay)
TGFBR2 = TGFBR2 (Homo sapiens, UniProt P37173); assay: as above
SRC = SRC (Homo sapiens, UniProt P12931); assay: as above
Chain of SRC (P12931 whole entry): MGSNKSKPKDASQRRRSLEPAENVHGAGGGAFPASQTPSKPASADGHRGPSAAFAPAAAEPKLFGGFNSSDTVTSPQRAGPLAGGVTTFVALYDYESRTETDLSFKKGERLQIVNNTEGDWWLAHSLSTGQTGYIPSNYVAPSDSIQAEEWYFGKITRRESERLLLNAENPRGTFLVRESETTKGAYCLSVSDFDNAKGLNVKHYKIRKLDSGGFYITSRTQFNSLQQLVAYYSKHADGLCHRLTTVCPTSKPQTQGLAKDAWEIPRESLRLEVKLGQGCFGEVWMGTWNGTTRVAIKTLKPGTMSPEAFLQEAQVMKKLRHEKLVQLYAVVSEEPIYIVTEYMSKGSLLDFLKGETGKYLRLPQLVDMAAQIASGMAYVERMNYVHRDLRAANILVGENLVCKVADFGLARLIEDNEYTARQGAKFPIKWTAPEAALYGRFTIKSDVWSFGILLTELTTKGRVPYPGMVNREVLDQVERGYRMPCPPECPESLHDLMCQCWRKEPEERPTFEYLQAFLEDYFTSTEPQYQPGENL

ROCK1 = ROCK1 (Homo sapiens, UniProt Q13464); assay: as above
Chain of ROCK1 (Q13464 whole entry): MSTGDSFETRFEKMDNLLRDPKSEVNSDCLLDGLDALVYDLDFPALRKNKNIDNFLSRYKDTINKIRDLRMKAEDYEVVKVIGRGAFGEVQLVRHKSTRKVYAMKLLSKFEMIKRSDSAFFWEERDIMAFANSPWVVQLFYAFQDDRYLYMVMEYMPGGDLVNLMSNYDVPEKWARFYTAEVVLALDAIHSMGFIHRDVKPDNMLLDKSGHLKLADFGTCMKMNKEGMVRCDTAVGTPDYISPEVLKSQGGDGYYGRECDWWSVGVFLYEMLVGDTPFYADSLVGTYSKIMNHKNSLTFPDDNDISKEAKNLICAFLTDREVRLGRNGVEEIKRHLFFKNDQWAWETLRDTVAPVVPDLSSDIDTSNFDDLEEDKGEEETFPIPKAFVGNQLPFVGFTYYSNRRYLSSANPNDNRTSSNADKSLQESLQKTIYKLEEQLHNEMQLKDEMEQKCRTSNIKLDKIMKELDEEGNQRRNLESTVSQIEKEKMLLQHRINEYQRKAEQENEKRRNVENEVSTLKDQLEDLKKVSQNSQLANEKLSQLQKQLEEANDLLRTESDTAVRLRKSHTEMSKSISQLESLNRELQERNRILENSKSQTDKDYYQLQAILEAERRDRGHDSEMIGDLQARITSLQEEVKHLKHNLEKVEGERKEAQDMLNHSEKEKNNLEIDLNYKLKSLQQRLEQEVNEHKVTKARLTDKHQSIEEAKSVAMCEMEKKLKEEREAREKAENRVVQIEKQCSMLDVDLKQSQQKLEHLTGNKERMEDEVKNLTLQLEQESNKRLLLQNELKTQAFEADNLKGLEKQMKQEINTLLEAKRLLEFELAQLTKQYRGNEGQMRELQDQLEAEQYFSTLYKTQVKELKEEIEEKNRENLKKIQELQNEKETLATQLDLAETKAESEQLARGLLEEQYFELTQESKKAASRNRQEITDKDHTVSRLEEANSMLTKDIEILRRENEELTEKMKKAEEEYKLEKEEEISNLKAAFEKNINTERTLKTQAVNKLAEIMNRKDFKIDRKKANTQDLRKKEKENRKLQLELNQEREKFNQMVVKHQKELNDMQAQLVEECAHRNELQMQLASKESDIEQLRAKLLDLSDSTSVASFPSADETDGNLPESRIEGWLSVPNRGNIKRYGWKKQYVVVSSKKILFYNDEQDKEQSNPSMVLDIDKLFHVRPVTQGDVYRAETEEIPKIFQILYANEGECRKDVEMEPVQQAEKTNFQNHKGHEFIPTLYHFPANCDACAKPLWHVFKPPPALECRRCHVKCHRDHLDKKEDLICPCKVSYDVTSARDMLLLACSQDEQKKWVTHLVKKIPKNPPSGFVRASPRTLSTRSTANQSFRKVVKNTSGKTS

TGFBR1 = target: T1, TGFBR1 (Homo sapiens, UniProt P36897); assay: as above
T1 sequence (P36897 34-503): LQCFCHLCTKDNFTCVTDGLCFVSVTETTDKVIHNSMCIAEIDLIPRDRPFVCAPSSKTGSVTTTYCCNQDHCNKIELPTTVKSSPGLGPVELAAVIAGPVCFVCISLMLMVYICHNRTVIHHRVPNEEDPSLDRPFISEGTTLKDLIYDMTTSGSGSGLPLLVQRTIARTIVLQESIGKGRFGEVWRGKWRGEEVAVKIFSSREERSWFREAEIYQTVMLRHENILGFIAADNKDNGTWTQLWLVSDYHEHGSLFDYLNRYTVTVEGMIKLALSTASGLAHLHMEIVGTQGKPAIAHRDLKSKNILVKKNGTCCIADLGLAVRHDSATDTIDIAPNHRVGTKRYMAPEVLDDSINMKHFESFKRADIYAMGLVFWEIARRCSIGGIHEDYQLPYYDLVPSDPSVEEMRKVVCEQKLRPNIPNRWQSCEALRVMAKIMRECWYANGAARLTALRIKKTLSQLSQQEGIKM

ROCK2 = ROCK2 (Homo sapiens, UniProt O75116); assay: as above
Chain of ROCK2 (O75116 whole entry): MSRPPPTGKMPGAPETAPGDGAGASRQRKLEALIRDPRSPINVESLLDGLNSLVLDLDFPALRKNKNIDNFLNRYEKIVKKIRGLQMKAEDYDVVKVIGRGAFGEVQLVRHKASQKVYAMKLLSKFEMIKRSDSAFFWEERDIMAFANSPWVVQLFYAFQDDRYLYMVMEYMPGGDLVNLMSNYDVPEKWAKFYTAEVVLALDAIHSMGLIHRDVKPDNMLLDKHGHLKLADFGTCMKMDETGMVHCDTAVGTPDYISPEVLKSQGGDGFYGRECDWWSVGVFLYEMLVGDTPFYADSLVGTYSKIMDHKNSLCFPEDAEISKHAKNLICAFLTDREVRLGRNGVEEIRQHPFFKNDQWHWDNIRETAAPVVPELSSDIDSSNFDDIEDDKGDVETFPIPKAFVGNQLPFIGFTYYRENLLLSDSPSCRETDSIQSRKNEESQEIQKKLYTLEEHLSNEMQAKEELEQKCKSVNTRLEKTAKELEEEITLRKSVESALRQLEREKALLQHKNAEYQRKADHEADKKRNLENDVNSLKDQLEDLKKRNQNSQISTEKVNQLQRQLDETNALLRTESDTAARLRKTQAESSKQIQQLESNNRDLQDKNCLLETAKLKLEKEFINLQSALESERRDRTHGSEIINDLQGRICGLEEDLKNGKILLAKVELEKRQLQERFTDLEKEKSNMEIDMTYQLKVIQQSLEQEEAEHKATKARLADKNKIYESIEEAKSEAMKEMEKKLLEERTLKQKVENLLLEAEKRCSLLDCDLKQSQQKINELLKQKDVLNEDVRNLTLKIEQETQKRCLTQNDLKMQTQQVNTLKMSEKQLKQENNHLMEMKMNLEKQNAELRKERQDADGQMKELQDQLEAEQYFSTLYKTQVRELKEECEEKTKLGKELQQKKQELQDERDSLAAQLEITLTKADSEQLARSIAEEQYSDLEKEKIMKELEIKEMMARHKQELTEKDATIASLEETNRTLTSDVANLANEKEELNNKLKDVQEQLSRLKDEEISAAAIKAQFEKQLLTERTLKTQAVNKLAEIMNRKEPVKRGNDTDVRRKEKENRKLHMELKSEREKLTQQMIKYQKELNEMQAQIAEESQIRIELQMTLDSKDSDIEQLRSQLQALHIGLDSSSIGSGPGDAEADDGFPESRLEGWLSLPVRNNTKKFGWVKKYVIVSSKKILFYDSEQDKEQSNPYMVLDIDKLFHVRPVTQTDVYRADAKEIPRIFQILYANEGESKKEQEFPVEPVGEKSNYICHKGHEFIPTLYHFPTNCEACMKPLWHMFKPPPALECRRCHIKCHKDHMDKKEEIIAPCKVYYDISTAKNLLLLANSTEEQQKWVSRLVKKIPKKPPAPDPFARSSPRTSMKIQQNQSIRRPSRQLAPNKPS

NMuMG cells = assay: High-content microscopy EMT screen in TGFβ-treated NMuMG cells (FA, SF, FN, cell count); format: cell-based, murine
ROCK = ROCK cellular assay (MLC Thr18/Ser19 phosphorylation ELISA in A7r5 cells); format: cell-based, rat; details: 90 min compound
Py2T cells = assay: High-content microscopy EMT assay in TGFβ-treated Py2T breast cancer cells; format: cell-based, murine
PDGFRA = PDGFRA (Homo sapiens, UniProt P16234); assay: Biochemical kinase profiling (33PanQinase radiometric assay)
Chain of PDGFRA (P16234 24-1089): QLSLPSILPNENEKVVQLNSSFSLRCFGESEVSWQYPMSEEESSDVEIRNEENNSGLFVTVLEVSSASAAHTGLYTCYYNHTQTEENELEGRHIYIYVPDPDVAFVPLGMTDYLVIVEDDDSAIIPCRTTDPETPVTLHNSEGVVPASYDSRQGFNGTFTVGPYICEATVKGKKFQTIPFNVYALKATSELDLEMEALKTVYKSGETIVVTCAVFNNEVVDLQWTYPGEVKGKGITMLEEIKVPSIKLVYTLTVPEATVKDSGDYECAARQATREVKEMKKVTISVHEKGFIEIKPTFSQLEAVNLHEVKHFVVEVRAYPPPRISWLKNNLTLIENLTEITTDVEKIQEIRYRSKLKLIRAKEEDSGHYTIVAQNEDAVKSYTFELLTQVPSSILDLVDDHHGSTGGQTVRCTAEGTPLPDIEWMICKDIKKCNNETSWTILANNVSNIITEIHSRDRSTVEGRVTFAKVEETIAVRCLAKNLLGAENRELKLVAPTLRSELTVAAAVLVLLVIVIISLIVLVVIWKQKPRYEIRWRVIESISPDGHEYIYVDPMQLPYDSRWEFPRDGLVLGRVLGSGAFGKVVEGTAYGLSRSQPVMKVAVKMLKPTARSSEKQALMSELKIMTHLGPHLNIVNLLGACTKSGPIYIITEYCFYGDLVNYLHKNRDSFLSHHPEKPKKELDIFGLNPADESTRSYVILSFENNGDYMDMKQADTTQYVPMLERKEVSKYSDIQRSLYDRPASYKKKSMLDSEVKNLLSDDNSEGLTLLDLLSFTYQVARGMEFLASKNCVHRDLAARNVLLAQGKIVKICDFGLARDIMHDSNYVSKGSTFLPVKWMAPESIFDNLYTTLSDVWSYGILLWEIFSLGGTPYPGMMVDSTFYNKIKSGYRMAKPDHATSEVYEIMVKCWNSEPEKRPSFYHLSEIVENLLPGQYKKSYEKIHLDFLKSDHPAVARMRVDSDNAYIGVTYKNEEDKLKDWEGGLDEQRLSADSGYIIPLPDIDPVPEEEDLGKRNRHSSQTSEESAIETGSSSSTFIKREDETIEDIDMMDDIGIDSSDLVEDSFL

FGFR4 = FGFR4 (Homo sapiens, UniProt P22455); assay: as above
FGFR2 = FGFR2 (Homo sapiens, UniProt P21802); assay: as above; details: read-out: FGFR2 IC50; ATP at apparent Km
[1] = Mus musculus; NMuMG; cell count decreased by 50% compared to DMSO control; read-out: Tox IC50
[2] = NMuMG, TGFβ1 2 ng/ml plus compound, 4 days; parameter decreased by 50%
[3] = NMuMG; compared to reference 10 μM SB-431542 = 100%
[4] = Mus musculus, 96 h; NMuMG, TGFβ1 2 ng/ml plus compound, 4 days; parameter decreased by 50%; read-out: FA IC50 (focal adhesion formation)
[5] = Mus musculus, 96 h; NMuMG, TGFβ1 2 ng/ml plus compound, 4 days; parameter decreased by 50%; read-out: FN IC50 (fibronectin patch formation)
[6] = Mus musculus, 96 h; NMuMG, TGFβ1 2 ng/ml plus compound, 4 days; parameter decreased by 50%; read-out: SF IC50 (stress fibers)
[7] = Mus musculus; NMuMG; mean of IC50 values obtained for FA, SF, FN; read-out: EMT (FA/SF/FN) combined IC50
[8] = Mus musculus; read-out: CCI IC50 (cell count increase)
[9] = Mus musculus; read-out: Emax (maximal effect on cell count)
[10] = Mus musculus, 96 h; Py2T, TGFβ plus compound, 4 days; read-out: FA IC50 (focal adhesions)
[11] = Mus musculus, 96 h; Py2T, TGFβ plus compound, 4 days; read-out: FN IC50 (fibronectin patches)
[12] = Mus musculus, 96 h; Py2T, TGFβ plus compound, 4 days; read-out: SF IC50 (stress fibers)
[13] = Mus musculus; Py2T; cell count decreased by 50% compared to DMSO control; read-out: Tox IC50
[14] = read-out: PDGFRB IC50, ATP at apparent Km
[15] = read-out: PDGFRA IC50, ATP at apparent Km
[16] = read-out: TGFBR2 IC50, ATP at apparent Km
[17] = read-out: TGFBR1 IC50, ATP at apparent Km
[18] = NMuMG, TGFβ1 2 ng/ml plus compound, 4 days; parameter decreased by 50%; read-out: FA IC50 (focal adhesion formation)
[19] = NMuMG, TGFβ1 2 ng/ml plus compound, 4 days; parameter decreased by 50%; read-out: FN IC50 (fibronectin patch formation)
[20] = NMuMG, TGFβ1 2 ng/ml plus compound, 4 days; parameter decreased by 50%; read-out: SF IC50 (stress fibers)
[21] = NMuMG; cell count decreased by 50% compared to DMSO control; read-out: Tox IC50
[22] = NMuMG; cell count increased by 50% compared to 100% with 10 μM SB-431542; read-out: CCI IC50 (cell count increase)
[23] = Mus musculus, read-out: CCI IC50 (cell count increase)
[24] = Mus musculus, read-out: Emax (maximal effect on cell count)

Chain of TGFBR2 (P37173 23-567): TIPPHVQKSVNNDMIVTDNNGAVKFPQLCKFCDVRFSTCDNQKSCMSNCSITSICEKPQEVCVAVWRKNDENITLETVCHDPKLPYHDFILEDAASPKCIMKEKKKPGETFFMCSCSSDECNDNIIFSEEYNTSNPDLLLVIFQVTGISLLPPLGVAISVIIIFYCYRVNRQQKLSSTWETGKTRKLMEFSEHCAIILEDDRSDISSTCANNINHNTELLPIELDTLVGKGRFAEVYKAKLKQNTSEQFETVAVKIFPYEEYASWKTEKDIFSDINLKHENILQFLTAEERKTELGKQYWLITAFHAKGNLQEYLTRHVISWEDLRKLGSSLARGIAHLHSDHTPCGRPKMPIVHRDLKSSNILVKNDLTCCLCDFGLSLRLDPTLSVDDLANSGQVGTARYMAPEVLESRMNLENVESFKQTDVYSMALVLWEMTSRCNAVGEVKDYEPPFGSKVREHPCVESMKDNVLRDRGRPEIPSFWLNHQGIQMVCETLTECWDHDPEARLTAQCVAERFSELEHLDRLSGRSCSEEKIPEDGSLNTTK

CCN1CCN(c2ccc(Nc3cc(N(C)C(=O)Nc4c(Cl)c(OC)cc(OC)c4Cl)ncn3)cc2)CC1 [BGJ398]
pIC50 (PDGFRB): 5.13 | pIC50 (TGFBR2): < 5.00 | pIC50 (SRC): 5.10 | pIC50 (ROCK1): < 5.00 | pIC50 (TGFBR1): < 5.00 | pIC50 (ROCK2): < 5.00 | pIC50 (NMuMG cells; [1]): 5.82 | FA IC50 (focal adhesion formation) (NMuMG cells; [2]): n.m. | FN IC50 (fibronectin patch formation) (NMuMG cells; [2]): n.m. | SF IC50 (stress fibers) (NMuMG cells; [2]): n.m. | Emax (maximal effect on cell count) (NMuMG cells; [3]): n.m.

NC(=O)c1ccc(NC(=O)NCc2cccc(C(=O)Nc3ccc4c(c3)CNCC4)c2)cc1 [CAY10622]
pIC50 (ROCK1; read-out: ROCK1 IC50, ATP at apparent Km): 7.27 | pIC50 (ROCK2; read-out: ROCK2 IC50, ATP at apparent Km): 7.75 | pIC50 (ROCK): < 5.00 | pIC50 (Py2T cells; Py2T, TGFβ plus compound, 4 days; read-out: FA IC50 (focal adhesions)): < 4.60 | pIC50 (Py2T cells; Py2T, TGFβ plus compound, 4 days; read-out: FN IC50 (fibronectin patches)): < 4.60 | pIC50 (Py2T cells; Py2T, TGFβ plus compound, 4 days; read-out: SF IC50 (stress fibers)): < 4.60 | pIC50 (Py2T cells; Py2T; cell count decreased by 50% compared to DMSO control; read-out: Tox IC50): < 4.60 | pIC50 (Py2T cells; Py2T; compared to 10 μM SB-431542; read-out: CCI IC50 (cell count increase)): < 4.60 | Emax (maximal effect on cell count) (Py2T cells; Py2T; compared to reference 10 μM SB-431542 = 100%): 18.4%

CC1=C(C(=O)Nc2cc3cn[nH]c3cc2F)C(c2ccc(C(F)(F)F)cc2)CC(=O)N1 (stereo not drawn) [GSK429286A]
pIC50 (ROCK1): 7.33 | pIC50 (ROCK2): 7.26 | pIC50 (NMuMG cells; [4]): 6.90 | pIC50 (NMuMG cells; [5]): 6.58 | pIC50 (NMuMG cells; [6]): 7.09 | pIC50 (NMuMG cells; [1]): < 4.60 | pIC50 (NMuMG cells; [7]): 6.80 | pIC50 (NMuMG cells; [8]): 6.85 | Emax (NMuMG cells; [9]): 33.2% | pIC50 (ROCK; Rattus norvegicus, 1.5 h): 7.54 | pIC50 (Py2T cells; [10]): 6.61 | pIC50 (Py2T cells; [11]): 6.72 | pIC50 (Py2T cells; [12]): 6.98 | pIC50 (Py2T cells; [13]): 4.69 | pIC50 (Py2T cells; [8]): 7.29 | Emax (Py2T cells; [9]): 47.5%

CCN(CC)CCCCNc1ncc2cc(-c3cc(OC)cc(OC)c3)c(NC(=O)NC(C)(C)C)nc2n1 [PD-173074]
pIC50 (PDGFRB): 5.47 | pIC50 (PDGFRA): < 5.00 | pIC50 (TGFBR2): < 5.00 | pIC50 (SRC): 5.17 | pIC50 (ROCK1): < 5.00 | pIC50 (FGFR4): 6.38 | pIC50 (TGFBR1): < 5.00 | pIC50 (ROCK2): < 5.00 | Emax (maximal effect on cell count) (NMuMG cells): n.m. | pIC50 (NMuMG cells; [1]): 5.49 | FA IC50 (focal adhesion formation) (NMuMG cells; [2]): n.m. | FN IC50 (fibronectin patch formation) (NMuMG cells; [2]): n.m. | SF IC50 (stress fibers) (NMuMG cells; [2]): n.m.

Cc1ccc(-c2nn(C(C)(C)C)c3ncnc(N)c23)cc1 [PP1]
pIC50 (PDGFRB; [14]): 6.88 | pIC50 (PDGFRA; [15]): 5.43 | pIC50 (TGFBR2; [16]): 5.88 | pIC50 (FGFR4; read-out: FGFR4 IC50, ATP at apparent Km): 6.21 | pIC50 (TGFBR1; [17]): 6.53 | pIC50 (FGFR2): 6.34 | pIC50 (NMuMG cells; [18]): 6.04 | pIC50 (NMuMG cells; [19]): 5.82 | pIC50 (NMuMG cells; [20]): 5.94 | pIC50 (NMuMG cells; [21]): 4.94 | pIC50 (NMuMG cells; [22]): 6.43 | Emax (maximal effect on cell count) (NMuMG cells; [3]): 22.3% | pIC50 (NMuMG cells; NMuMG; mean of IC50 values obtained for FA, SF, FN; read-out: EMT (FA/SF/FN) combined IC50): 5.93

CCn1c(-c2nonc2N)nc2cncc(C(=O)N3CC[C@H](N)C3)c21 [SB-772077B]
pIC50 (NMuMG cells; [4]): 7.29 | pIC50 (NMuMG cells; [5]): 7.27 | pIC50 (NMuMG cells; [6]): 7.54 | pIC50 (NMuMG cells; [23]): 7.30 | Emax (NMuMG cells; [24]): 30.5% | pIC50 (NMuMG cells; [1]): 5.27 | pIC50 (NMuMG cells; [7]): 7.35 | pIC50 (ROCK; Rattus norvegicus, 1.5 h): 7.55 | pIC50 (Py2T cells; [23]): 7.55 | Emax (Py2T cells; [24]): 63.6% | pIC50 (Py2T cells; Mus musculus, read-out: Tox IC50): 5.71

CN(C)CCOc1cc(-c2cn[nH]c2)ccc1NC(=O)C1COc2ccccc2O1 (stereo not drawn) [SR-3677]
pIC50 (ROCK2): 7.12 | pIC50 (NMuMG cells; [4]): 6.80 | pIC50 (NMuMG cells; [5]): 6.75 | pIC50 (NMuMG cells; [6]): 7.51 | pIC50 (NMuMG cells; [1]): < 4.60 | pIC50 (NMuMG cells; [7]): 6.91 | pIC50 (NMuMG cells; [8]): 7.30 | Emax (NMuMG cells; [9]): 34.7% | pIC50 (Py2T cells; [10]): 6.38 | pIC50 (Py2T cells; [11]): 6.28 | pIC50 (Py2T cells; [12]): 7.05 | pIC50 (Py2T cells; [13]): 5.17 | pIC50 (Py2T cells; [8]): 7.82 | Emax (Py2T cells; [9]): 51%

Cc1[nH]c(/C=C2\C(=O)Nc3ccccc32)c(C)c1CCC(=O)O [TSU-68]
pIC50 (PDGFRB; [14]): 6.99 | pIC50 (PDGFRA; [15]): 7.11 | pIC50 (TGFBR2; [16]): < 5.00 | pIC50 (TGFBR1; [17]): < 5.00 | pIC50 (FGFR2): 6.23 | pIC50 (NMuMG cells; [18]): < 5.00 | pIC50 (NMuMG cells; [19]): < 5.00 | pIC50 (NMuMG cells; [20]): < 5.00 | pIC50 (NMuMG cells; [21]): < 5.00 | pIC50 (NMuMG cells; [22]): < 5.00 | Emax (maximal effect on cell count) (NMuMG cells; [3]): 1.7% | pIC50 (ROCK): < 5.00
